Laboratory results reported in patent US20260152527A1, “NOVEL MELANOCORTIN ANALOGS” (priority 2022, published 2026).
pIC50: −log10 of the molar value. Converted amounts (≈) assume the structure as drawn. Where two headings read alike, the source gives them in different places. Positions of bridges follow the written chain, without caps; N, C: chain ends. Non-standard residues stand in square brackets, D forms with d. Residues, ends and D or L forms follow the SMILES beside them. Triazole bridges read from a SMILES are 1,4-linked. *: point of attachment. Benzoyl(3,5-(OH)2) = O=C(c1cc(O)cc(O)c1)*; Lys(N3) = [N-]=[N+]=NCCCC[C@H](N)C(=O)O; dPhe(4-F) = N[C@H](Cc1ccc(F)cc1)C(=O)O; Nle = CCCC[C@H](N)C(=O)O; Pra = C#CC[C@H](N)C(=O)O

Columns and labels:
[1] = In vivo topical administration pharmacokinetics of K173, rabbit (aqueous humor, cornea); conditions: for level at 0.5 h / level at 1 h / level at 2 h / level at 4 h / level at 8 h / level at 24 h: aqueous humor, topical or ocular; for level at 0.5 h: 30 Min post-last dose; for level at 1 h: 1 hr post-last dose; for level at 2 h: 2 hr post-last dose; for level at 4 h: 4 hr post-last dose; for level at 8 h: 8 hr post-last dose; for level at 24 h: 24 hr post-last dose
Description: Animals were not tranquilized for the examinations.
The remaining ocular tissues were discarded. Ocular samples were stored −80° C.
The rabbit efficacy model can be used to determine if QD or BID dosing is optimal for clinical utility.

human recombinant MC5R = target: T1, human recombinant MC5R (Homo sapiens, UniProt P33032); experiment: Ca2+ signalling functional assay, MC5R stable cell line (CHO-K1/Ga15); assay type: cell-based
T1 construct: host or cells: CHO-K1/Ga15
Description: The Ca^2+ signalling functional assay was performed on a human recombinant MC5R stable cell line (CHO-K1/Ga15, GenScript). The cells were cultured at 37° C. and 5% C02 with culture medium (90% Ham's F-12K (Kaighn's)+10% FBS+400 μg/mL G418+100 μg/mL Hygromycin B). Cells were washed with PBS and then detached by incubation with 0.05% (w/v) Trypsin EDTA at 37° C. for 2 to 5 mins. Detached cells were suspended in Ham's F-12K (Kaighn's) (containing 10% FBS) and a 50 μL cell suspension is seeded into each well of a 384-well assay plate at a density of 15,000 cells/well. Cells were allowed to settle overnight at 37° C., 5% CO2. […] Then, 100 nL of compounds were transferred to the compound plate by the Echo machine. Thirty microliter assay buffer was added to the compounds plate and then shaken for 20-40 minutes. The plates were placed on the FLIPR and 15 μL of the compound was added to each well, then calcium flux signal was measured.

[2] = In vivo topical administration pharmacokinetics / tissue distribution of K173, rat; conditions: four days of BID topical dosing
Description: To evaluate the pharmacokinetics of the peptide formulations following topical administration a study in rats was undertaken.
Treatment was administered twice daily (BID) with approximately 6-8 hours between BID doses.
All animals underwent twice daily cage side clinical observations with particular attention paid to the eyes. Animals were not tranquilized for the examinations.
When animals were terminal, blood was collected by inserting a 25G needle into the heart and the animal was exsanguinated and the blood was collected into K2EDTA tubes for plasma collection. […] Once centrifuged, the clear plasma was transferred to a prelabelled polypropylene tube, snap frozen and stored at approximately −80° C.
Following euthanasia, eyes were enucleated and rinsed twice with fresh ice-cold PBS. […] The anterior segment and lens were removed and the neurosensory retina was dissected into pre-weighed 2 mL polypropylene tube, re-weighed and snap frozen. The brain was collected and weighted and the hypothalamus, hippocampus, and remining brain were dissected, placed in pre-weighted polypropylene tubes, re-weighed, and snap frozen. All tissues were stored at −80° C.
The concentrations of K173 in the aqueous humor, retina, hypothalamus, hippocampus, remaining brain tissue, and plasma was measured and the values are provided in Table 7.

[3] = rabbit
Description: To evaluate the effects of the peptide formulations following topical administration and subconjunctival injection a study in rabbits was undertaken. Animals were acclimated to the study and, upon completion of the acclimation period, each animal was physically examined for determination of suitability for study participation. Animals determined to be in good health were randomized into study groups to achieve averaged mean body weight in each group. (N=24; 3 animals per study group) Animals will be uniquely identified by corresponding cage card number and ear tag.
For topical ocular dosing the designated peptide formulations (35 L) were administered to the eye of each animal using a calibrated pipette. With the animal manually restrained, the upper eyelid of the eye was gently elevated to expose the cornea. Treatment was then be applied to the cornea without contacting the eye with the pipette tip. One topical drop was applied per eye for four days. Tissue collection (aqueous humor) occurred 30 minutes after last dose.
A veterinary ophthalmologist performed complete ocular examinations using a slit lamp biomicroscope and indirect ophthalmoscope to evaluate ocular surface morphology and anterior and posterior segment inflammation on all animals prior to injection to serve as a baseline for enrollment into the study as well as on specific study days. Animals were not tranquilized for the examinations.
At least 1.0 mL of whole blood was drawn from the marginal ear vein or cardiac puncture (terminal bleed only) into K2EDTA tubes for plasma collection. After collection, the tubes were gently mixed by inverting the tubes 5-8 times. Blood samples were stored on wet ice prior to plasma processing. The samples were centrifuged at 4° C. for 10 minutes at 2000 g in a swinging bucket refrigerated centrifuge. Within 20 minutes of the blood collection time, the clear plasma was transferred to prelabelled polypropylene tubes, snap frozen, and stored frozen at approximately −80° C.
Following euthanasia, eyes were enucleated and marked at the 12:00 position. Aqueous humor was removed via a 27 or 30 gauge syringe following a 10-15 second rinse with PBS and blot with Kimwipe, and snap frozen by immersing in liquid nitrogen. The whole globe was then snap frozen in liquid nitrogen and stored at −80° C. to be held for potential dissection. All samples were placed into individual vials and weighed. The plasma and aqueous humor were collected.
The peptides were evaluated for their ocular tolerability and pharmacokinetics following repeated (QID×4 days) topical instillation or a single subconjunctival injection in rabbits. The study examined penetration into the anterior chamber and concentrations in the plasma by measuring at a single time point.

human recombinant MC4R = target: T2, human recombinant MC4R (Homo sapiens, UniProt P32245); experiment: Ca2+ signalling functional assay, MC4R stable cell line (CHO-K1/Gα15); assay type: cell-based
T2 construct: host or cells: CHO-K1/Gα15
Description: The Ca^2+ signalling functional assay was performed on a human recombinant MC4R stable cell line (CHO-K1/Gα15, GenScript). The cells were cultured at 37° C. and 5% CO2 with culture medium (90% Ham's F-12K (Kaighn's)+10% FBS+8 μg/mL Puromycin+100 μg/mL Hygromycin B). Cells were washed with PBS and then detached by incubation with 0.05% (w/v) Trypsin EDTA at 37° C. for 2-5 mins. Detached cells were suspended in Ham's F-12K (Kaighn's) (containing 10% FBS) and a 50 μL cell suspension was seeded into each well of a 384-well assay plate at a density of 15,000 cells/well. Cells were allowed to settle overnight at 37° C., 5% CO2. The next day, the assay plate was centrifuged and the media was replaced with dye (1×) in assay buffer (containing HBSS, HEPES 20 mM and probenecid 1 mM) and incubated for 1 h at 37° C. […] Then, 100 nL of compounds were transferred to the compound plate by the Echo machine. 30 μL assay buffer was added to the compounds plate and then shaken for 20 to 40 minutes. The plates were placed on the FLIPR and 15 μL of the compound was added to each well, then calcium flux signal was measured.

human recombinant MC1R = target: T3, human recombinant MC1R (Homo sapiens, UniProt Q01726); experiment: cyclic AMP (cAMP) functional assay, MC1R stable cell line (CHO-K1); assay type: cell-based;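 also: cells with test compound for 60 min at room temperature in buffer containing IBMX, then cAMP quantified by Eu-cAMP tracer and ULight anti-cAMP detection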
T3 construct: host or cells: CHO-K1
Description: The cyclic AMP (cAMP) functional assay was performed on a human recombinant MC1R stable cell line (CHO-K1, GenScript). The cells were cultured at 37° C. and 5% CO2 with culture medium (90% Ham's F-12K (Kaighn's)+10% FBS+400 μg/mL G418). […] Then, 100 nL of compounds were transferred to the assay plate by the Echo machine. Cells were washed with PBS and then detached by incubation with 0.05% (w/v) Trypsin EDTA at 37° C. for 2 to 5 mins. Cells were collected with stimulation buffer (1×HBSS with 5 mM HEPES+0.2 mM IBMX+0.1% BSA) and 10 ul of cells (the density of 2,500 cells/well) solution was transferred to assay plate, centrifuged at 600 rpm for 3 min and then incubated with compounds at room temperature for 60 min. After that, 5 μL 4×Eu-cAMP tracer solution and 5 μL 4×ULight™-anti-cAMP solution was added into the cells, centrifuged at 600 rpm for 3 min and incubated for 60 min. The cAMP signal was detected with Envision® Multimode Plate Reader (PerkinElmer).

[4] = Thermodynamic solubility study in water; assay type: physicochemical; conditions: Table 8; read-out: Solubility
Description: The study was conducted in water. Water was added into compound powder to make a 10 mg/mL solution. Sample tubes were shaken at the vibrator for 1 hour (1000 rpm) and then equilibrated overnight at room temperature. Samples were centrifuged at 12000 rpm for 10 min to precipitate undissolved particles. Supernatants were transferred from tubes to a new plate. An aliquot of the supernatant after centrifugation was taken from each well, then analyzed by LC-MS/MS. The concentration of the supernatants was quantified by a standard curve.

[5] = 5 mg/ml solution, 35 L per eye, Group 1 (single dose), topical 5 mg/ml, OD, Mean, read-out: K173 Concentrations (ng/mL) in Rabbit Aqueous Humor OD Sample, Mean
[6] = 5 mg/ml solution, 35 L per eye, Group 1 (single dose), topical 5 mg/ml, OS, Mean, read-out: K173 Concentrations (ng/mL) in Rabbit Aqueous Humor OS Sample, Mean
[7] = 5 mg/ml solution, 35 L per eye, Group 2 (4 doses), topical 5 mg/ml, OD, Mean, read-out: K173 Concentrations (ng/mL) in Rabbit Aqueous Humor OD Sample, Mean
[8] = 5 mg/ml solution, 35 L per eye, Group 2 (4 doses), topical 5 mg/ml, OS, Mean, read-out: K173 Concentrations (ng/mL) in Rabbit Aqueous Humor OS Sample, Mean
[9] = 5 mg/ml solution, 35 L per eye, Group 3 (8 BID doses), topical 5 mg/ml, OD, Mean, read-out: K173 Concentrations (ng/mL) in Rabbit Aqueous Humor OD Sample, Mean
[10] = 5 mg/ml solution, 35 L per eye, Group 3 (8 BID doses), topical 5 mg/ml, OS, Mean, read-out: K173 Concentrations (ng/mL) in Rabbit Aqueous Humor OS Sample, Mean
[11] = 5 mg/ml, Group 1 (single dose), topical 5 mg/ml, OD, Mean, read-out: K173 Concentrations (ng/mL) in Rabbit Aqueous Humor OD Sample, Mean
[12] = 5 mg/ml, Group 1 (single dose), topical 5 mg/ml, OS, Mean, read-out: K173 Concentrations (ng/mL) in Rabbit Aqueous Humor OS Sample, Mean
[13] = 5 mg/ml, Group 1 (single dose), topical 5 mg/ml, OS, individual animals, read-out: K173 Concentrations (ng/mL) in Rabbit Aqueous Humor OS Sample
[14] = 5 mg/ml, Group 2 (4 doses), topical 5 mg/ml, OD, Mean, read-out: K173 Concentrations (ng/mL) in Rabbit Aqueous Humor OD Sample, Mean
[15] = 5 mg/ml, Group 2 (4 doses), topical 5 mg/ml, OS, Mean, read-out: K173 Concentrations (ng/mL) in Rabbit Aqueous Humor OS Sample, Mean
[16] = 5 mg/ml, Group 2 (4 doses), topical 5 mg/ml, OD, individual animals, read-out: K173 Concentrations (ng/mL) in Rabbit Aqueous Humor OD Sample
[17] = 5 mg/ml, Group 3 (8 BID doses), topical 5 mg/ml, OD, Mean, read-out: K173 Concentrations (ng/mL) in Rabbit Aqueous Humor OD Sample, Mean
[18] = 5 mg/ml, Group 3 (8 BID doses), topical 5 mg/ml, OS, Mean, read-out: K173 Concentrations (ng/mL) in Rabbit Aqueous Humor OS Sample, Mean

T1 sequence (P33032 whole entry): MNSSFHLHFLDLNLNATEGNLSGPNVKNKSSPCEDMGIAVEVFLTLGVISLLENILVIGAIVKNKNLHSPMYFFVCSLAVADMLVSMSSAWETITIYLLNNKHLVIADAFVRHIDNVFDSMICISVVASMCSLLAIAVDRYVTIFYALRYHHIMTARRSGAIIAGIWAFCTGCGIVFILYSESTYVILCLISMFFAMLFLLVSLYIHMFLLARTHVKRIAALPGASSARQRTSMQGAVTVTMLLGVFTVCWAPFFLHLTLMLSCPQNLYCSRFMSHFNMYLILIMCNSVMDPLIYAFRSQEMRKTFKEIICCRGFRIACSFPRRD
T3 sequence (Q01726 whole entry): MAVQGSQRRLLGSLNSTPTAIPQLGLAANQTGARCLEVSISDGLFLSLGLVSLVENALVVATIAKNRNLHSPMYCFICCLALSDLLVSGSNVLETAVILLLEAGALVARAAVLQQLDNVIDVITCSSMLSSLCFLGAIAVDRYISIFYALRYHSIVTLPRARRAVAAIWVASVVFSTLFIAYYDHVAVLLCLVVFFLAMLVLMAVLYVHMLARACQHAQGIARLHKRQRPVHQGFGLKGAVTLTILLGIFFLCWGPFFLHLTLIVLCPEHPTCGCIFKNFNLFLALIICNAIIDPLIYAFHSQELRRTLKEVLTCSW
T2 sequence (P32245 whole entry): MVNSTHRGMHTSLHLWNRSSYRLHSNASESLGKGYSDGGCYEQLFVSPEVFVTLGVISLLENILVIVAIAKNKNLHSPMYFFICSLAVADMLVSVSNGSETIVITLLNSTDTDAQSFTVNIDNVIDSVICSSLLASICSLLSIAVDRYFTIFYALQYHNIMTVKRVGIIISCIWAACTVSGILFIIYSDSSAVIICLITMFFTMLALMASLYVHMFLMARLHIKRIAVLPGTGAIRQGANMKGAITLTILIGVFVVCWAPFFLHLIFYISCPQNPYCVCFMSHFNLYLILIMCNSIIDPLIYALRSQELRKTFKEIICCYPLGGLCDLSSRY

CCCC[C@H](NC(=O)c1cc(O)cc(O)c1)C(=O)N[C@H]1CCCCn2cc(nn2)C[C@@H](C(N)=O)NC(=O)[C@H](Cc2c[nH]c3ccccc23)NC(=O)[C@H](CCCNC(=N)N)NC(=O)[C@@H](Cc2ccc(F)cc2)NC(=O)[C@H](Cc2c[nH]cn2)NC1=O [KR-072, HyBA-Nle-[Lys(N3)-His-Dphe(4-F)-Arg-Trp-Pra]-NH2] ({Benzoyl(3,5-(OH)2)}-[Nle][Lys(N3)]H[dPhe(4-F)]RW[Pra]-NH2; triazole 2-7)
level at 0.5 h [1, 5]: 8.44 ng/mL
level at 0.5 h [1, 6]: 1.36 ng/mL
level at 1 h [1, 5]: 1.13 ng/mL
level at 1 h [1, 6]: 5.22 ng/mL
level at 0.5 h [1, 7]: 1.9 ng/mL
level at 0.5 h [1, 8]: 3.47 ng/mL
level at 1 h [1, 7]: 2.75 ng/mL
level at 1 h [1, 8]: 2.49 ng/mL
level at 2 h [1, 9]: 10.5 ng/mL
level at 2 h [1, 10]: 12.1 ng/mL
level at 4 h [1, 9]: 11.6 ng/mL
level at 4 h [1, 10]: 7.33 ng/mL
level at 8 h [1, 9]: 5.92 ng/mL
level at 8 h [1, 10]: 6.42 ng/mL
level at 24 h [1, 9]: 3.79 ng/mL
level at 24 h [1, 10]: 4.45 ng/mL
level at 2 h [1, 11]: 3.58 ng/mL
level at 2 h [1, 12]: 1.89 ng/mL
level at 4 h [1, 11]: 2.68 ng/mL
level at 4 h ([1]; 5 mg/ml, Group 1 (single dose), topical 5 mg/ml, OD, individual animals, read-out: K173 Concentrations (ng/mL) in Rabbit Aqueous Humor OD Sample): 2.94 ng/mL
level at 4 h [1, 12]: 3.35 ng/mL
level at 4 h [1, 13]: 3.56 ng/mL
level at 8 h [1, 11]: 5.77 ng/mL
level at 8 h [1, 12]: 4.2 ng/mL
level at 8 h [1, 13]: 3.34 ng/mL
level at 24 h [1, 11]: 3.22 ng/mL
level at 24 h [1, 12]: 2.46 ng/mL
level at 24 h [1, 13]: 2.34 ng/mL
level at 2 h [1, 14]: 5.76 ng/mL
level at 2 h [1, 15]: 7.84 ng/mL
level at 4 h [1, 14]: 4.61 ng/mL
level at 4 h [1, 15]: 3.86 ng/mL
level at 8 h [1, 14]: 10.9 ng/mL
level at 8 h [1, 16]: 11.3 ng/mL
level at 8 h [1, 15]: 14.8 ng/mL
level at 24 h [1, 14]: 1.98 ng/mL
level at 24 h [1, 16]: 2.34 ng/mL
level at 24 h [1, 15]: 2.33 ng/mL
level at 24 h ([1]; 5 mg/ml, Group 2 (4 doses), topical 5 mg/ml, OS, individual animals, read-out: K173 Concentrations (ng/mL) in Rabbit Aqueous Humor OS Sample): 2.3 ng/mL
level at 0.5 h [1, 17]: 10.3 ng/mL
level at 0.5 h [1, 18]: 8.11 ng/mL
level at 1 h [1, 17]: 5 ng/mL
level at 1 h ([1]; 5 mg/ml, Group 3 (8 BID doses), topical 5 mg/ml, OD, individual animals, read-out: K173 Concentrations (ng/mL) in Rabbit Aqueous Humor OD Sample): 5.13 ng/mL
level at 1 h [1, 18]: 6.56 ng/mL
level at 1 h ([1]; 5 mg/ml, Group 3 (8 BID doses), topical 5 mg/ml, OS, individual animals, read-out: K173 Concentrations (ng/mL) in Rabbit Aqueous Humor OS Sample): 7.48 ng/mL
Aqueous humor levels 24 hours after last dose ([1]; topical 5 mg/ml, all dose groups): measurable levels were detected after 24 hours in all dose groups
ocular surface retention and Tmax ([1]; topical, after a single dose): prolonged ocular surface retention and Tmax
EC50 (human recombinant MC5R): 78 nM
pIC50 (human recombinant MC5R; calcium flux functional assay): 7.11
K173 level in the neural retina [2]: high levels
K173 presence in brain ([2]; hypothalamus, hippocampus, remaining brain): found in all parts of the brains
Topical Ocular Permeability (nM ± SEM) [3]: 15.5 ± 2.6 nM
EC50 (human recombinant MC4R): 98.6 nM
EC50 (human recombinant MC1R): 0.0019 nM
pIC50 (human recombinant MC1R; cAMP functional assay): 11.72
solubility [4]: 6470 µg/mL (≈ 5.58 mM)
